Assay results: ChEMBL document CHEMBL1201862, “PubChem BioAssay data set” (2004)
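Cells were grown in 96-well plates and exposed to each compound for 48 hours at five concentrations; endpoints were interpolated linearly between bracketing concentrations, or set to the highest concentration if not reached. GI50 = concentration required for 50% inhibition of growth.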 Activity calls are given as the source filed them. Rule as the data show it: active = GI50 up to about 1.1 µM and inactive = higher.

Legend:
Assay in all cases: NCI tumour cell line growth inhibition, 48 h
[1] = test system: M19-MEL
[2] = test system: LXFL 529
[3] = test system: SNB-78
[4] = test system: XF498
[5] = test system: DMS-273
[6] = test system: DMS-114
[7] = test system: HOP-18

Measured: GI50

CCN(CC)CCCNC(=O)c1ccccc1Nc1c(Cl)cccc1Cl
inactive: [1] 3.28 µM | [2] 14.6 µM | [3] 15 µM | [4] 2.26 µM | [5] 17.3 µM | [6] 12.2 µM

Nc1nc(N)nc(-c2ccccc2NS(=O)(=O)c2ccc([N+](=O)[O-])cc2)n1
inactive: [1] 34.9 µM | [3] > 74.1 µM | [4] 18.2 µM | [5] 55.8 µM | [6] 25.8 µM | [7] > 100 µM
